Data published in patent US20030165854A1, “Marker genes responding to treatment with toxins” (priority 2000, published 2003).

How the values were obtained:
[1] = system: rat liver cDNAs SEQ ID NOs: 1-61; assay type: in vivo, Han/Wistar rat; details: Strain HW
[2] = system: rat liver cDNAs SEQ ID NOs: 62-202; assay: Abundance of cDNA clones in toxin-treated rat liver cDNA libraries (transcript imaging), Sprague-Dawley; assay type: in vivo; details: Strain SD
Experimental: Columns 1 and 2 show the SEQ ID NO and Clone ID of the rat cDNA clone, respectively.
Abundance of a clone was determined by counting the number of clones present in a master cluster.
Abundance of a particular cDNA in the library profile was determined by summing the total number of copies of the clones present in the master cluster in that library.

For `c1ccc2c(c1)cc1ccc3cccc4ccc2c1c34` [benzo(a)pyrene], the “Maximum Abundance, SEQ ID NO 6, Clone ID 700062791” value [1] was 4, the “Maximum Abundance, SEQ ID NO 7, Clone ID 700250279” value [1] was 6 and the “Maximum Abundance, SEQ ID NO 8, Clone ID 700312413” value [1] was 4. The “Maximum Abundance, SEQ ID NO 9, Clone ID 700308908” value [1] was 6, the “Maximum Abundance, SEQ ID NO 76, Clone ID 700059750” value [2] was 3 and the “Maximum Abundance, SEQ ID NO 77, Clone ID 700123903” value [2] was 3. For the same molecule, the “Maximum Abundance, SEQ ID NO 78, Clone ID 700135554” value [2] was 3, the “Maximum Abundance, SEQ ID NO 79, Clone ID 700175783” value [2] was 4 and the “Maximum Abundance, SEQ ID NO 80, Clone ID 700176825” value [2] was 4. For the same molecule, the “Maximum Abundance, SEQ ID NO 81, Clone ID 700177142” value [2] was 4, the “Maximum Abundance, SEQ ID NO 82, Clone ID 700185570” value [2] was 3 and the “Maximum Abundance, SEQ ID NO 83, Clone ID 700244879” value [2] was 3. The “Maximum Abundance, SEQ ID NO 84, Clone ID 700246085” value [2] was 4, the “Maximum Abundance, SEQ ID NO 85, Clone ID 700302152” value [2] was 10 and the “Maximum Abundance, SEQ ID NO 86, Clone ID 700305538” value [2] was 13. For the same molecule, the “Maximum Abundance, SEQ ID NO 87, Clone ID 700307329” value [2] was 3, the “Maximum Abundance, SEQ ID NO 88, Clone ID 700323326” value [2] was 4 and the “Maximum Abundance, SEQ ID NO 89, Clone ID 700328990” value [2] was 4. For the same molecule, the “Maximum Abundance, SEQ ID NO 90, Clone ID 700330391” value [2] was 3, the “Maximum Abundance, SEQ ID NO 91, Clone ID 700363445” value [2] was 6 and the “Maximum Abundance, SEQ ID NO 92, Clone ID 700480903” value [2] was 3. The “Maximum Abundance, SEQ ID NO 93, Clone ID 700482908” value [2] was 3, the “Maximum Abundance, SEQ ID NO 94, Clone ID 700935261” value [2] was 3 and the “Maximum Abundance, SEQ ID NO 95, Clone ID 700939101” value [2] was 3. For the same molecule, the “Maximum Abundance, SEQ ID NO 96, Clone ID 700950626” value [2] was 3, the “Maximum Abundance, SEQ ID NO 97, Clone ID 701316308” value [2] was 3 and the “Maximum Abundance, SEQ ID NO 98, Clone ID 701316810” value [2] was 3. For the same molecule, the “Maximum Abundance, SEQ ID NO 99, Clone ID 701327688” value [2] was 3, the “Maximum Abundance, SEQ ID NO 100, Clone ID 701337820” value [2] was 3 and the “Maximum Abundance, SEQ ID NO 101, Clone ID 701432276” value [2] was 4. For the same molecule, the “Maximum Abundance, SEQ ID NO 102, Clone ID 701432317” value [2] was 3, the “Maximum Abundance, SEQ ID NO 103, Clone ID 701472012” value [2] was 3 and the “Maximum Abundance, SEQ ID NO 104, Clone ID 701472036” value [2] was 3. The “Maximum Abundance, SEQ ID NO 105, Clone ID 701517108” value [2] was 3, the “Maximum Abundance, SEQ ID NO 106, Clone ID 701710808” value [2] was 4 and the “Maximum Abundance, SEQ ID NO 107, Clone ID 701241446” value [2] was 3. The “Maximum Abundance, SEQ ID NO 108, Clone ID 701711993” value [2] was 5, the “Maximum Abundance, SEQ ID NO 110, Clone ID 700192259” value [2] was 5 and the “Maximum Abundance, SEQ ID NO 111, Clone ID 700269330” value [2] was 4. For the same molecule, the “Maximum Abundance, SEQ ID NO 112, Clone ID 701317696” value [2] was 5, the “Maximum Abundance, SEQ ID NO 186, Clone ID 700068662” value [2] was 6 and the “Maximum Abundance, SEQ ID NO 187, Clone ID 700933309” value [2] was 5. For the same molecule, the “Maximum Abundance, SEQ ID NO 201, Clone ID 700062503” value [2] was 3, the “Maximum Abundance, SEQ ID NO 202, Clone ID 700490891” value [2] was 4 and the “Maximum Abundance, SEQ ID NO 74, Clone ID 700137978” value ([2]; Sex F) was 7. For the same molecule, the “Maximum Abundance, SEQ ID NO 75, Clone ID 701709967” value ([2]; Sex F) was 4, the “Maximum Abundance, SEQ ID NO 188, Clone ID 700024288” value ([2]; Sex F) was 2 and the “Maximum Abundance, SEQ ID NO 190, Clone ID 700066933” value ([2]; Sex F) was 2. The “Maximum Abundance, SEQ ID NO 191, Clone ID 700146747” value ([2]; Sex F) was 3, the “Maximum Abundance, SEQ ID NO 193, Clone ID 700858043” value ([2]; Sex F) was 1 and the “Maximum Abundance, SEQ ID NO 109, Clone ID 700250903” value ([2]; Sex M) was 11. For the same molecule, the “Maximum Abundance, SEQ ID NO 196, Clone ID 700062747” value ([2]; Sex M) was 2, the “Maximum Abundance, SEQ ID NO 197, Clone ID 700124248” value ([2]; Sex M) was 3 and the “Maximum Abundance, SEQ ID NO 200, Clone ID 700282789” value ([2]; Sex M) was 3.

With `ClC(Cl)(Cl)Cl` [CCI4, carbon tetrachloride] the “Maximum Abundance, SEQ ID NO 16, Clone ID 700024834” value [1] was 3, the “Maximum Abundance, SEQ ID NO 18, Clone ID 700060675” value [1] was 4 and the “Maximum Abundance, SEQ ID NO 19, Clone ID 700062240” value [1] was 5. For the same molecule, the “Maximum Abundance, SEQ ID NO 23, Clone ID 700067778” value [1] was 3, the “Maximum Abundance, SEQ ID NO 24, Clone ID 700123633” value [1] was 3 and the “Maximum Abundance, SEQ ID NO 25, Clone ID 700127949” value [1] was 3. The “Maximum Abundance, SEQ ID NO 26, Clone ID 700132557” value [1] was 7, the “Maximum Abundance, SEQ ID NO 27, Clone ID 700135733” value [1] was 4 and the “Maximum Abundance, SEQ ID NO 28, Clone ID 700135850” value [1] was 3. The “Maximum Abundance, SEQ ID NO 29, Clone ID 700137416” value [1] was 4, the “Maximum Abundance, SEQ ID NO 30, Clone ID 700140375” value [1] was 3 and the “Maximum Abundance, SEQ ID NO 31, Clone ID 700140450” value [1] was 8. The “Maximum Abundance, SEQ ID NO 32, Clone ID 700144406” value [1] was 4, the “Maximum Abundance, SEQ ID NO 33, Clone ID 700175249” value [1] was 7 and the “Maximum Abundance, SEQ ID NO 34, Clone ID 700177158” value [1] was 3. The “Maximum Abundance, SEQ ID NO 36, Clone ID 700181614” value [1] was 3, the “Maximum Abundance, SEQ ID NO 37, Clone ID 700182016” value [1] was 3 and the “Maximum Abundance, SEQ ID NO 38, Clone ID 700185871” value [1] was 3. The “Maximum Abundance, SEQ ID NO 39, Clone ID 700198357” value [1] was 3, the “Maximum Abundance, SEQ ID NO 40, Clone ID 700230123” value [1] was 4 and the “Maximum Abundance, SEQ ID NO 41, Clone ID 700248367” value [1] was 3. The “Maximum Abundance, SEQ ID NO 42, Clone ID 700250877” value [1] was 3, the “Maximum Abundance, SEQ ID NO 43, Clone ID 700253694” value [1] was 3 and the “Maximum Abundance, SEQ ID NO 44, Clone ID 700303850” value [1] was 3. For the same molecule, the “Maximum Abundance, SEQ ID NO 45, Clone ID 700305380” value [1] was 4, the “Maximum Abundance, SEQ ID NO 46, Clone ID 700313077” value [1] was 3 and the “Maximum Abundance, SEQ ID NO 47, Clone ID 700361225” value [1] was 3. For the same molecule, the “Maximum Abundance, SEQ ID NO 48, Clone ID 700363174” value [1] was 3, the “Maximum Abundance, SEQ ID NO 49, Clone ID 700478138” value [1] was 5 and the “Maximum Abundance, SEQ ID NO 50, Clone ID 700480077” value [1] was 3. The “Maximum Abundance, SEQ ID NO 52, Clone ID 700491990” value [1] was 3, the “Maximum Abundance, SEQ ID NO 53, Clone ID 700818852” value [1] was 5 and the “Maximum Abundance, SEQ ID NO 54, Clone ID 700937735” value [1] was 8. For the same molecule, the “Maximum Abundance, SEQ ID NO 56, Clone ID 701257766” value [1] was 3, the “Maximum Abundance, SEQ ID NO 58, Clone ID 701574951” value [1] was 3 and the “Maximum Abundance, SEQ ID NO 59, Clone ID 701578278” value [1] was 3. The “Maximum Abundance, SEQ ID NO 60, Clone ID 701597659” value [1] was 3, the “Maximum Abundance, SEQ ID NO 61, Clone ID 701637512” value [1] was 4 and the “Maximum Abundance, SEQ ID NO 14, Clone ID 700330824” value ([1]; Sex F) was 3.
